Publication PMC5786788, “Antimicrobial Octapeptin C4 Analogues Active against Cryptococcus Species” (Antimicrobial Agents and Chemotherapy, 2018)
≈ marks a conversion by molar mass, not a printed value. Read-outs that look alike come from different tables or passages of the source. Where a SMILES comes first, the peptide text is derived from it. Bridges are numbered along the chain shown (N, C = ends). [ ]: non-standard residue; d: D form. The star is where a group is joined. Decanoyl(3R-OH) = CCCCCCC[C@@H](O)CC(=O)*; Dab = NCC[C@H](N)C(=O)O

How the values were obtained:
[1] = tested on: C. neoformans var. grubii; assay: organism not typed
Protocol: The MICs of the yeast strains for PMB, PME, and octapeptin C4 and its derivatives were determined in accordance with CLSI M27-A2 guidelines using YNB (Becton Dickinson, USA) medium supplemented with 10 mM ammonium sulfate and 2% glucose, a final inoculum concentration of 1.5 × 10^3 to 2.0 × 10^3 cells/ml, and incubation at 35°C for 72 h ([39]). […] The MICs for PMB, PME, and octapeptin C4 for A. fumigatus were determined in accordance with the CLSI M38-A2 guidelines ([40]) using synthetic RPMI 1640 medium (with glutamine, without bicarbonate and with phenol red; Life Technologies, USA). The final inoculum concentration was 0.4 × 10^4 to 5 × 10^4 cells/ml, with incubation at 35°C for 48 h. […] All assays were completed in triplicate. Fluconazole was used as a positive control where the MIC was determined at both 50% growth (in accordance with CLSI M27-A2 guidelines) and when there was a “no visible growth” reading. […]

[2] = tested on: C. neoformans var. gattii; assay: microbe, parasite or virus in culture; details: no visible growth
Protocol: (§1) The MICs of the yeast strains for PMB, PME, and octapeptin C4 and its derivatives were determined in accordance with CLSI M27-A2 guidelines using YNB (Becton Dickinson, USA) medium supplemented with 10 mM ammonium sulfate and 2% glucose, a final inoculum concentration of 1.5 × 10^3 to 2.0 × 10^3 cells/ml, and incubation at 35°C for 72 h ([39]). […] The MICs for PMB, PME, and octapeptin C4 for A. fumigatus were determined in accordance with the CLSI M38-A2 guidelines ([40]) using synthetic RPMI 1640 medium (with glutamine, without bicarbonate and with phenol red; Life Technologies, USA). The final inoculum concentration was 0.4 × 10^4 to 5 × 10^4 cells/ml, with incubation at 35°C for 48 h. […] All assays were completed in triplicate. Fluconazole was used as a positive control where the MIC was determined at both 50% growth (in accordance with CLSI M27-A2 guidelines) and when there was a “no visible growth” reading.

[3] = tested on: C. neoformans var. neoformans; assay: microbe, parasite or virus in culture; details: Cryptococcus neoformans, no visible growth
Protocol: as §1

C. gattii MMRL 2651 = tested on: C. gattii MMRL 2651
Protocol: (§2) A broth microdilution assay was initially used to characterize the antifungal activity of the cyclic lipopeptides ([39], [40]). […] common pathogenic yeasts (C. albicans, C. glabrata, C. parapsilosis, C. neoformans, and C. gattii) and one pathogenic mold (A. fumigatus) were tested to determine the MIC for each compound (Table 1) using broth microdilution. […] The only structural difference between these molecules is the presence of a phenylalanine residue at position 6 in PMB; in PME a D-leucine is present at this location (Fig. 1).
(§3) Fungal strains were stored in 15% glycerol at −80°C until use. The fungal strains used were H99 (C. neoformans type strain) ([55]), cap59Δ (an acapsular H99 mutant) ([56]), ATCC 90113 (C. neoformans), MMRL 2651 (C. gattii), ATCC 90028 (Candida albicans), ATCC 90030 (Candida glabrata), ATCC 22019 (Candida parapsilosis), and ATCC MYA 3626 (Aspergillus fumigatus). Yeasts were cultured in liquid (1% yeast extract, 2% Bacto peptone, 2% glucose) or solid (additional 2% agar) yeast extract-peptone-dextrose (YPD) media at 30°C and maintained at 4°C for no longer than 2 weeks. A. fumigatus was prepared on potato dextrose medium at 30°C and maintained at 4°C for no longer than 2 weeks.
as §1

C. neoformans ATCC 90113 = details: ATCC 90113, 72 h
Protocol: as §2, §3, §1

C. neoformans H99 = details: H99, 72 h
Protocol: as §2, §3, §1

[4] = tested on: C. neoformans H99 (cap59Δ); format: cell-based, Cryptococcus neoformans; details: Table 2; triplicate, values consistent across replicates
Text: The different susceptibility of C. neoformans and C. gattii to PMB compared to other pathogenic fungi such as C. albicans and A. fumigatus has been postulated to arise from differences in cell surface composition ([38]). One key difference is the presence of a negatively charged polysaccharide capsule in Cryptococcus spp. proposed to concentrate the cationic lipopeptides at the cell surface ([38]). To examine this potential interaction for the octapeptin series, a C. neoformans cap59Δ mutant strain deficient in the secretion of negatively charged glucuronoxylomannan (an α1–3-linked mannan containing β1,2 and β1,4 xylosyl substitutions, as well as β1,2-linked glucuronyl residues) ([41], [42]), was tested against octapeptin C4 in comparison to PMB.
as §3, §1

## C[C@@H]1[C@H](O)[C@@H](C)/C=C/C=C/C=C/C=C/C=C/C=C/C=C/[C@H](O[C@@H]2O[C@H](C)[C@@H](O)[C@H](N)[C@@H]2O)C[C@@H]2O[C@](O)(C[C@@H](O)C[C@@H](O)[C@H](O)CC[C@@H](O)C[C@@H](O)CC(=O)O[C@H]1C)C[C@H](O)[C@H]2C(=O)O [Amphotericin B, amphotericin B]
[1]
  MIC: 3.13 µg/mL (≈ 3.39 µM)
[1]; Cryptococcus neoformans
  MIC: 3.13 µg/mL (≈ 3.39 µM)
[1]; strain 486 (USA), no visible growth
  MIC: 3.13 µg/mL (≈ 3.39 µM)
[1]; strain 488 (AIDS+, pre-HAART USA), no visible growth
  MIC: 3.13 µg/mL (≈ 3.39 µM)
[1]; strain 490 (USA), no visible growth
  MIC: 3.13 µg/mL (≈ 3.39 µM)
[1]; strain 496 (USA), no visible growth
  MIC: 3.13 µg/mL (≈ 3.39 µM)
[1]; strain 500 (USA), no visible growth
  MIC: 3.13 µg/mL (≈ 3.39 µM)
[1]; strain 502 (ARR3+ USA), no visible growth
  MIC: 3.13 µg/mL (≈ 3.39 µM)
[1]; strain 505 (India), no visible growth
  MIC: 3.13 µg/mL (≈ 3.39 µM)
[1]; strain 507 (India), no visible growth
  MIC: 3.13 µg/mL (≈ 3.39 µM)
[1]; strain 510 (VNII India), no visible growth
  MIC: 3.13 µg/mL (≈ 3.39 µM)
[1]; strain 512 (India), no visible growth
  MIC: 3.13 µg/mL (≈ 3.39 µM)
[1]; strain 516 (India), no visible growth
  MIC: 3.13 µg/mL (≈ 3.39 µM)
[1]; strain 518 (VNI India), no visible growth
  MIC: 3.13 µg/mL (≈ 3.39 µM)
[1]; strain 522 (India), no visible growth
  MIC: 3.13 µg/mL (≈ 3.39 µM)
[1]; strain 525 (India), no visible growth
  MIC: 3.13 µg/mL (≈ 3.39 µM)
[1]; strain 1188 (Japan lung), no visible growth
  MIC: 3.13 µg/mL (≈ 3.39 µM)
[1]; strain 1194 (Italy), no visible growth
  MIC: 3.13 µg/mL (≈ 3.39 µM)
[1]; strain 1196 (Botswana CSF/AIDS), no visible growth
  MIC: 3.13 µg/mL (≈ 3.39 µM)
[1]; strain 1197 (Botswana CSF/AIDS), no visible growth
  MIC: 3.13 µg/mL (≈ 3.39 µM)
[1]; strain H99O (lab strain), no visible growth
  MIC: 3.13 µg/mL (≈ 3.39 µM)
[1]; strain H99 stud (lab strain), no visible growth
  MIC: 3.13 µg/mL (≈ 3.39 µM)
[2]; Cryptococcus neoformans, ATCC32269, strain ATCC 32269
  MIC: 3.13 µg/mL (≈ 3.39 µM)
[2]; Cryptococcus neoformans, ATCC32609, strain ATCC 32609 (NIH444)
  MIC: 3.13 µg/mL (≈ 3.39 µM)
[2]; Cryptococcus neoformans, ATCC34878, strain ATCC 34878
  MIC: 3.13 µg/mL (≈ 3.39 µM)
[2]; Cryptococcus neoformans, ATCC34882, strain ATCC 34882
  MIC: 3.13 µg/mL (≈ 3.39 µM)
[2]; Cryptococcus neoformans, strain 93/980 (CSF France)
  MIC: 3.13 µg/mL (≈ 3.39 µM)
[2]; Cryptococcus neoformans, strain 94/943-6 (CSF Mexico)
  MIC: 3.13 µg/mL (≈ 3.39 µM)
[2]; Cryptococcus neoformans, strain 94/943-8 (CSF Mexico)
  MIC: 3.13 µg/mL (≈ 3.39 µM)
[2]; Cryptococcus neoformans, strain R270 (Vancouver Island)
  MIC: 12.5 µg/mL (≈ 13.5 µM)
[2]; strain 96/1120-2 (CSF HIV2 France)
  MIC: 12.5 µg/mL (≈ 13.5 µM)
[3]; strain WM 01.127 (USA)
  MIC: 3.13 µg/mL (≈ 3.39 µM)
[3]; strain WM 02.141 (Russia)
  MIC: 3.13 µg/mL (≈ 3.39 µM)
[3]; strain WM 02.143 (Russia)
  MIC: 3.13 µg/mL (≈ 3.39 µM)
[3]; strain WM 02.37 (Canada)
  MIC: 3.13 µg/mL (≈ 3.39 µM)
[3]; strain WM 04.168 (Chile)
  MIC: 3.13 µg/mL (≈ 3.39 µM)
[3]; strain WM 04.171 (Thailand, environmental)
  MIC: 3.13 µg/mL (≈ 3.39 µM)
[3]; strain WM 05.467 (Brazil, environmental)
  MIC: 3.13 µg/mL (≈ 3.39 µM)
[3]; strain WM 05.515 (Peru)
  MIC: 3.13 µg/mL (≈ 3.39 µM)
[3]; strain WM 09.109 (Italy, environmental)
  MIC: 3.13 µg/mL (≈ 3.39 µM)
[3]; strain WM 09.112 (USA)
  MIC: 3.13 µg/mL (≈ 3.39 µM)
[3]; strain WM 10.119 (Australia)
  MIC: 3.13 µg/mL (≈ 3.39 µM)
[3]; strain WM 629 (Australia)
  MIC: 3.13 µg/mL (≈ 3.39 µM)
[3]; strain WM 1706 (Argentina)
  MIC: 3.13 µg/mL (≈ 3.39 µM)
[3]; strain WM 1740 (Chile)
  MIC: 3.13 µg/mL (≈ 3.39 µM)
[3]; strain WM 2207 (USA, environmental)
  MIC: 3.13 µg/mL (≈ 3.39 µM)
[3]; strain WM 2242 (USA)
  MIC: 3.13 µg/mL (≈ 3.39 µM)
[3]; strain WM 2530 (USA)
  MIC: 3.13 µg/mL (≈ 3.39 µM)

## CCCCCCC[C@@H](O)CC(=O)N[C@H](C)C(=O)N[C@H]1CCNC(=O)[C@H](CC(C)C)NC(=O)[C@H](CCN)NC(=O)[C@H](CCN)NC(=O)[C@H](CC(C)C)NC(=O)[C@@H](Cc2ccccc2)NC(=O)[C@H](CCN)NC1=O [Compound P1D] ({Decanoyl(3R-OH)}-[dA][Dab][Dab][dF]L[Dab][Dab]L; lactam 2-C)
C. gattii MMRL 2651; Table 2, C. gattii, triplicate, values consistent across replicates
  MICs against various Cryptococcus strains: MMRL 2651: 12.5 µg/mL
C. neoformans ATCC 90113
  MICs against various Cryptococcus strains: ATCC 90113: 6.25 µg/mL
C. neoformans H99
  MICs against various Cryptococcus strains: H99: 6.25 µg/mL
[4]
  MICs against various Cryptococcus strains: H99 (cap59Δ): 12.5 µg/mL

## CCCCCCC[C@@H](O)CC(=O)N[C@@H](C)C(=O)N[C@H]1CCNC(=O)[C@H](CC(C)C)NC(=O)[C@H](CCN)NC(=O)[C@H](CCN)NC(=O)[C@H](CC(C)C)NC(=O)[C@@H](Cc2ccccc2)NC(=O)[C@H](CCN)NC1=O [Compound P1L] ({Decanoyl(3R-OH)}-A[Dab][Dab][dF]L[Dab][Dab]L; lactam 2-C)
C. gattii MMRL 2651; 72 h
  MICs against various Cryptococcus strains: MMRL 2651: 12.5 µg/mL
C. neoformans ATCC 90113
  MICs against various Cryptococcus strains: ATCC 90113: 12.5 µg/mL
C. neoformans H99
  MICs against various Cryptococcus strains: H99: 12.5 µg/mL
[4]
  MICs against various Cryptococcus strains: H99 (cap59Δ): 25.0 µg/mL
